# Tests used:
# [1] = tested on: EpiAirway; test: Insulin tissue permeation across EpiAirway, ELISA; assay type: in vitro ADME; details: in vitro study 3; Tween-containing formulations
# [2] = Rabbit pharmacokinetics (serum insulin) after IN, SC, IV or oral insulin; assay type: in vivo, ニュージーランド白色ラビット; details: PK study 2
# [3] = tested on: 黄色ブドウ球菌、クロカビ、緑膿菌; test: Antimicrobial effectiveness test (AET), USP and EP requirements; details: for AET result against EP requirements / AET result against USP requirements: insulin nasal spray formulations (placebo or active); for Preservative / antimicrobial effectiveness: in insulin nasal spray formulations, neutral pH
# [4] = Compatibility of preservative with insulin (precipitation); assay type: physicochemical; details: presence in formulation caused insulin precipitation
# [5] = tested on: グルコース; test: Human PD clinical study, glucose by glucometer; assay type: in vivo, ヒト; details: intranasal administration
compound,measurement,setting,value
"CCCCCCCCCC(=O)OC[C@H](COP(=O)([O-])OCC[N+](C)(C)C)OC(=O)CCCCCCCCC [DDPC, L−α−ホスファチジルコリンジデカノイル]",Effect of removing the excipient from the formulation on insulin permeation,[1],影響を有しなかった
same,"Effect of removing DDPC on BA(%), Cmax and AUClast",[2],減少した
"O=C([O-])CN(CCN(CC(=O)[O-])CC(=O)O)CC(=O)O.[Na+].[Na+] [EDTA, エデト酸二ナトリウム]",AET result against EP requirements,[3],有効であるとは思われなかった
same,AET result against USP requirements,[3],有効であるとは思われなかった
Cc1cccc(O)c1 [m−クレゾール],Preservative / antimicrobial effectiveness,[3],有効な防腐剤ではなかった
CC(C)CC(N)B(O)O (stereo not drawn) [ベンジルアルコール],Preservative / antimicrobial effectiveness,[3],有効な防腐剤ではなかった and 無効
CC(C)CC(N)B(O)O (stereo not drawn) [塩化ベンズアルコニウム],Preservative / antimicrobial effectiveness,[3],最良の抗菌性能
same,AET result against EP requirements,[3],優れた防腐剤
same,AET result against USP requirements,[3],優れた防腐剤
same,Compatibility with insulin,[4],不適合性
CC(C)CC(N)B(O)O (stereo not drawn) [安息香酸ナトリウム],Preservative / antimicrobial effectiveness,[3],有効な防腐剤ではなかった
インスリン: recombinant native-sequence human insulin,Reduction of glucose (%) in patients,[5],有効
